Laboratory results published in US11779572B1, “Methods of treating gastrointestinal stromal tumors” (Deciphera Pharmaceuticals, LLC, priority 2022, dated 2023).

Key:
Type in all cases: in vivo, human
[1] = Coadministration with pantoprazole (proton-pump inhibitor); details: 40 mg QD pantoprazole with 150 mg QD ripretinib
Procedure: The effect of a proton-pump inhibitor on the exposure of ripretinib was evaluated.

[2] = Food effect (high-fat meal) on exposure; details: 150 mg dose of ripretinib
Procedure: The effect of a high-fat breakfast on ripretinib and Compound A exposure was evaluated. A high fat meal consisted of approximately 150, 250, and 500-600 calories from protein, carbohydrate, and fat, respectively. […] The food effect is not considered to be clinically significant based on exposure-response analysis. Therefore, ripretinib may be taken with or without food at approximately same time each day.

GIST patients = experiment: Example 2 study: treatment-emergent adverse events
Procedure: Grade 3 or 4 treatment-emergent adverse events (TEAEs) in >5% of patients were lipase increased (18%; n=33), anemia (11%; n=20), hypertension (7%; n=13) and abdominal pain (6%; n=11). 13% of patients (n=24) experienced TEAEs leading to study treatment discontinuation, 17% of patients (n=31) experienced TEAEs leading to dose reduction and 49% of patients (n=88) had TEAEs leading to study drug interruption. Table 3 lists TEAEs >10% for GIST patients treated with ≥100 mg of ripretinib daily.

[3] = ≥100 mg daily, col c2 (no head; Grade 3 or 4)
[4] = ≥100 mg daily, col c3 (no head; c1+c2)

## CCn1c(=O)c(-c2cc(NC(=O)Nc3ccccc3)c(F)cc2Br)cc2cnc(NC)cc21 [ripretinib]
[1]
  plasma exposure when ripretinib is coadministered with pantoprazole: No clinically significant differences
[2]
  AUC0-24h higher with a high-fat meal: 30%
  Cmax higher with a high-fat meal: 22%
GIST patients; GIST patients ≥100 mg daily
  tolerability: generally well tolerated
GIST patients; ≥100 mg daily
  Grade 3 or 4 TEAE abdominal pain: 6%
  Grade 3 or 4 TEAE anemia: 11%
  Grade 3 or 4 TEAE hypertension: 7%
  Grade 3 or 4 TEAE lipase increased: 18%
  patients with TEAEs leading to dose reduction: 17%
  patients with TEAEs leading to study drug interruption: 49%
  patients with TEAEs leading to study treatment discontinuation: 13%
GIST patients; ≥100 mg daily, col c1
  TEAE: Abdominal pain: 33 (18%)
  TEAE: Actinic keratosis: 25 (14%)
  TEAE: Alopecia: 102 (57%)
  TEAE: Amylase increased: 19 (11%)
  TEAE: Anemia: 18 (10%)
  TEAE: Arthralgia: 40 (22%)
  TEAE: Back Pain: 30 (17%)
  TEAE: Blood bilirubin increase: 16 (9%)
  TEAE: Blood creatine phosphokinase increased: 13 (7%)
  TEAE: Constipation: 67 (37%)
  TEAE: Cough: 37 (21%)
  TEAE: Decreased appetite: 60 (34%)
  TEAE: Diarrhea: 50 (28%)
  TEAE: Dizziness: 29 (16%)
  TEAE: Dry skin: 37 (21%)
  TEAE: Dysgeusia: 20 (11%)
  TEAE: Dyspnea: 32 (18%)
  TEAE: Fatigue: 94 (53%)
  TEAE: Headache: 33 (18%)
  TEAE: Hypertension: 25 (14%)
  TEAE: Hypokalaemia: 21 (12%)
  TEAE: Hypomagnesaemia: 18 (10%)
  TEAE: Hypophosphataemia: 17 (10%)
  TEAE: Insomnia: 21 (12%)
  TEAE: Lipase increased: 18 (10%)
  TEAE: Muscle spasms: 47 (26%)
  TEAE: Myalgia: 79 (44%)
  TEAE: Nausea: 77 (43%)
  TEAE: Pain in extremity: 18 (10%)
  TEAE: Palmar-plantar erythrodysaesthesia syndrome: 71 (40%)
  TEAE: Pruritus: 18 (10%)
  TEAE: Rash: 27 (15%)
  TEAE: Rash maculo-papular: 18 (10%)
  TEAE: Seborrhoeic keratosis: 21 (12%)
  TEAE: Skin papilloma: 17 (10%)
  TEAE: Upper respiratory tract infection: 18 (10%)
  TEAE: Urinary tract infection: 16 (9%)
  TEAE: Vision blurred: 17 (10%)
  TEAE: Vomiting: 42 (24%)
  TEAE: Weight decreased: 51 (29%)
GIST patients; [3]
  TEAE: Abdominal pain: 11 (6%)
  TEAE: Actinic keratosis: 0 (0%)
  TEAE: Alopecia: 0 (0%)
  TEAE: Amylase increased: 2 (1%)
  TEAE: Anemia: 20 (11%)
  TEAE: Arthralgia: 0 (0%)
  TEAE: Back Pain: 2 (1%)
  TEAE: Blood bilirubin increase: 5 (3%)
  TEAE: Blood creatine phosphokinase increased: 5 (3%)
  TEAE: Constipation: 0 (0%)
  TEAE: Cough: 0 (0%)
  TEAE: Decreased appetite: 2 (1%)
  TEAE: Diarrhea: 3 (2%)
  TEAE: Dizziness: 0 (0%)
  TEAE: Dry skin: 0 (0%)
  TEAE: Dysgeusia: 0 (0%)
  TEAE: Dyspnea: 4 (2%)
  TEAE: Fatigue: 4 (2%)
  TEAE: Headache: 1 (1%)
  TEAE: Hypertension: 13 (7%)
  TEAE: Hypokalaemia: 5 (3%)
  TEAE: Hypomagnesaemia: 0 (0%)
  TEAE: Hypophosphataemia: 8 (5%)
  TEAE: Insomnia: 0 (0%)
  TEAE: Lipase increased: 33 (18%)
  TEAE: Muscle spasms: 0 (0%)
  TEAE: Myalgia: 0 (0%)
  TEAE: Nausea: 1 (1%)
  TEAE: Pain in extremity: 1 (1%)
  TEAE: Palmar-plantar erythrodysaesthesia syndrome: 1 (1%)
  TEAE: Pruritus: 0 (0%)
  TEAE: Rash: 0 (0%)
  TEAE: Rash maculo-papular: 0 (0%)
  TEAE: Seborrhoeic keratosis: 0 (0%)
  TEAE: Skin papilloma: 0 (0%)
  TEAE: Upper respiratory tract infection: 0 (0%)
  TEAE: Urinary tract infection: 4 (2%)
  TEAE: Vision blurred: 0 (0%)
  TEAE: Vomiting: 2 (1%)
  TEAE: Weight decreased: 1 (1%)
GIST patients; [4]
  TEAE: Abdominal pain: 44 (25%)
  TEAE: Actinic keratosis: 25 (14%)
  TEAE: Alopecia: 102 (57%)
  TEAE: Amylase increased: 21 (12%)
  TEAE: Anemia: 38 (21%)
  TEAE: Arthralgia: 40 (22%)
  TEAE: Back Pain: 32 (18%)
  TEAE: Blood bilirubin increase: 21 (12%)
  TEAE: Blood creatine phosphokinase increased: 18 (10%)
  TEAE: Constipation: 67 (37%)
  TEAE: Cough: 37 (21%)
  TEAE: Decreased appetite: 62 (35%)
  TEAE: Diarrhea: 53 (30%)
  TEAE: Dizziness: 29 (16%)
  TEAE: Dry skin: 37 (21%)
  TEAE: Dysgeusia: 20 (11%)
  TEAE: Dyspnea: 36 (20%)
  TEAE: Fatigue: 98 (55%)
  TEAE: Headache: 34 (19%)
  TEAE: Hypertension: 38 (21%)
  TEAE: Hypokalaemia: 26 (15%)
  TEAE: Hypomagnesaemia: 18 (10%)
  TEAE: Hypophosphataemia: 25 (14%)
  TEAE: Insomnia: 21 (12%)
  TEAE: Lipase increased: 51 (29%)
  TEAE: Muscle spasms: 47 (26%)
  TEAE: Myalgia: 79 (44%)
  TEAE: Nausea: 78 (44%)
  TEAE: Pain in extremity: 19 (11%)
  TEAE: Palmar-plantar erythrodysaesthesia syndrome: 72 (40%)
  TEAE: Pruritus: 18 (10%)
  TEAE: Rash: 27 (15%)
  TEAE: Rash maculo-papular: 18 (10%)
  TEAE: Seborrhoeic keratosis: 21 (12%)
  TEAE: Skin papilloma: 17 (10%)
  TEAE: Upper respiratory tract infection: 18 (10%)
  TEAE: Urinary tract infection: 20 (11%)
  TEAE: Vision blurred: 17 (10%)
  TEAE: Vomiting: 44 (25%)
  TEAE: Weight decreased: 52 (29%)
